Measured values reported in patent publication US10617736B2, “Method for modulating insulin-independent glucose transport using teneurin C-terminal associated peptide (TCAP)” (priority 2014, dated 2020).
Square brackets hold non-standard residues; d marks the D form. Ends that are not written are not given here. pGlu = O=C1CC[C@@H](C(=O)O)N1

How the values were obtained:
[1] = test system: skeletal mouse muscle fibers; assay: FITC-TCAP-1 binding assay on skeletal mouse muscle sections; conditions: fluorescence, co-staining with β-DG
Experimental: (§1) The [K8]-TCAP-1 peptide was labeled with fluorescein isothiocyanate (FITC) according to the EZ-label TITC Protein labeling kit (Pierce Biotechnology, Rockford Ill.). FITC was dissolved in dimethylformamide, mixed with the [K8]-TCAP-1 at a 24:1 excess molar ratio and incubated for 2 h at RT in the dark to allow for the conjugation of the primary amine of the lysine group. A dextran column was used to remove the unconjugated FITC and the absorbance of each fraction was measured at 280 nm to determine the elution point of the conjugated peptide in phosphate buffered saline (PBS; 0.1M phosphate, 0.15 M NaCl, pH7.2). The four fractions with the highest protein absorbance readings were combined and sterilize-filtered using an Acrodisc Syringe 0.2 μm Supor low protein binding filter (Pall Life Sciences, Ann Arbor, Mich.). […] The amount of the FITC required to be injected as a control was determined by applying different PBS-diluted preparations of FITC on a nitrocelluose membrate. The level of fluorescence was directly compared to that of a spot of the FITC-[K8]-TCAP-1 conjugate to be administered and that dilution was used for the administration after sterilize-filtration indicated above. Fluorescence was measured using an EP Chemi II Darkroom system (UVP, Upland, Calif.) with the sequential integration function of LabWorks Image acquisition and analysis software. […]

latrophilin-1 = molecular target: T1, latrophilin-1 (Mus musculus, UniProt Q80TR1); assay: Co-localization of FITC-TCAP-1 with latrophilin-1 in Hypo E-38 cells; format: binding
T1 construct: only latrophilin 1 and 3 could be detected in this cell line or in the intact mouse brain; endogenous in cells; host or cells: Hypo E-38 (mHypoE-38) immortalized embryonic mouse hypothalamic neurons
T1 sequence (Q80TR1 29-1466): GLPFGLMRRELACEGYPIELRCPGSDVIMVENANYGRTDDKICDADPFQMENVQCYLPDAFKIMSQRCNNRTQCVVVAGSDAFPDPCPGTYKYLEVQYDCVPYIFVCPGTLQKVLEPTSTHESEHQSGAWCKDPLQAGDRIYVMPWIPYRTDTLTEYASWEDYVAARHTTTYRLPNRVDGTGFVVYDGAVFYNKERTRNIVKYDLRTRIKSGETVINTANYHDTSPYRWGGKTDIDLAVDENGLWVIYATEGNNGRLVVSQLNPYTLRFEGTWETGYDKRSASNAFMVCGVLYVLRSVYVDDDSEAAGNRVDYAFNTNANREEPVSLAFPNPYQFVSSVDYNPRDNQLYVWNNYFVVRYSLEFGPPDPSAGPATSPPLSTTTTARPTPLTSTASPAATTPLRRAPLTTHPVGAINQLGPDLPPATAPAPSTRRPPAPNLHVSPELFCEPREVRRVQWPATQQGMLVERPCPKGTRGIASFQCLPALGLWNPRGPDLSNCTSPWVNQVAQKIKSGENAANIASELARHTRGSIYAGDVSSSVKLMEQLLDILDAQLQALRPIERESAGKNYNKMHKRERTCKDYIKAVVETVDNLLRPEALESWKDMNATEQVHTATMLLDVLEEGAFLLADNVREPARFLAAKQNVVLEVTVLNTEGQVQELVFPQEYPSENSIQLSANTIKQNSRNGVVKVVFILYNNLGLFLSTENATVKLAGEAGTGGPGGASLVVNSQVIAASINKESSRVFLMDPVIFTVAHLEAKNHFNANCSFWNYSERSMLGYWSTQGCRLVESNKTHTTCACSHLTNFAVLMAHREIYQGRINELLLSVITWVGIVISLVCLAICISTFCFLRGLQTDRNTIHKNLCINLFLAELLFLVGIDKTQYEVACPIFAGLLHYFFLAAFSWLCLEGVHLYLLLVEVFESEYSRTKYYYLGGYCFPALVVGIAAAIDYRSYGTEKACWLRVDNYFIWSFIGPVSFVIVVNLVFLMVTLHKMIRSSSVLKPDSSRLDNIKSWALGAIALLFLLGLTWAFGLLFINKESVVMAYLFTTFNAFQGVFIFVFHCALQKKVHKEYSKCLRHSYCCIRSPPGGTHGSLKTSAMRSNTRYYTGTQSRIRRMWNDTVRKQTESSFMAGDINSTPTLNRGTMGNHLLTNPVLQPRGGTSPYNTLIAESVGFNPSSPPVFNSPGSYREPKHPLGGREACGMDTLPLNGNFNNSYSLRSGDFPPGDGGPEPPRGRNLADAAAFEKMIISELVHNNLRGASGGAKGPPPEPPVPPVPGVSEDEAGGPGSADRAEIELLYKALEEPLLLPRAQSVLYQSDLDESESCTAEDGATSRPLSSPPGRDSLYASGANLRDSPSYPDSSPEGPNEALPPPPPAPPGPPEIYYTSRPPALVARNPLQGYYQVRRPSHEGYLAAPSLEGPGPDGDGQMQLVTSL
Experimental: as §1

mHypoE-38 neurons = assay: 3H-2-deoxyglucose uptake in mHypoE-38 hypothalamic neurons; format: cell-based, mouse
Experimental: The effect of TCAP-1 on glucose uptake in brain cells was examined in immortalized […] hypothalamic cells. Immortalized mHypoE-38 hypothalamic embryonic mouse neurons (gift from Dr. Denise Belsham, University of Toronto) were grown in Dulbecco's Modified Eagle Medium (DMEM) containing 4500 mg/L D-glucose, L-glutamine, and 25 mM HEPES buffer, without sodium pyruvate or phenol red (Gibco, Cat. No. 21063029), supplemented with 5% heat-inactivated fetal bovine serum (FBS), 100 U/ml penicillin and 100 μg/ml streptomycin. Cells were maintained at 60-70% confluency at 37° C. in a humidified CO2 incubator. To passage, cells were washed once in sterile PBS, trypsinized and seeded at a density of 100,000 cells per 3.5 cm plate and allowed to grow for 2-3 days. 24 hours prior to experimentation, medium was changed. mHypoE-38 hypothalamic cells were grown in 6-well tissue culture dishes (Corning Incorporated, Cat. No. 3516) at a seeding density of200 000 cells/9.5 cm^2 well in a 37° C. normoxic incubator. Cultures were grown for 36 hours to 85% confluence prior to experimentation. At day 3 post-plating, cells were washed twice with Locke's buffer (154 mM NaCl, 5.6 mM KCl, 2.3 mM CaCl2, 3.6 mM NaHCO3, 5 mM HEPES) without serum and glucose. The culture was incubated in the Locke's buffer for 1 hour at 37° C. followed by exposure to 100 nM insulin, 100 nM TCAP-1, 100 nM SC-TCAP-1, or saline. KCl (40 mM) and […] (0.5 μCi/ml) were added to culture 5 minutes before termination of treatment exposure. Uptake of ^3H-2-deoxyglucose was stopped immediately after 5 minutes with three washes of ice-cold 0.9% NaCl solution. Parallel experiments with 5 μM of cytochalasin B were performed to ensure that glucose uptake was of transporter-inhibitable transport. The cells were digested with 1 ml of 0.05 N NaOH at 0, 15, 30, 45, 60, 90 and 120 minutes after treatment. Cell lysates were used for determination of radioactivity by a beta liquid scintillation counter. Experiments were repeated three times with 3 wells pear condition per replication. […] hypothalamic cells were cultured as above and treated with 100 nM insulin, 100 nM TCAP-1 or saline, exposed to 5.6 mM or 40 mM KCl and 0.5 μCi/well 3H-2-deoxy glucose, and subsequently lysed with 50 mM NaOH. Radioactivity in cell lysates was counted using a liquid scintillation counter.

C2C12 myocytes = assay: 3H-2-deoxyglucose uptake in C2C12 myocytes; format: cell-based, mouse; conditions: 100 nM, over two hours (FIG. 20)
Experimental: The effect of TCAP-1 on glucose uptake in muscle cells was examined in a C2C12 mouse myocyte cell line. C2C12 myocytes were cultured in Dulbecco's Modified Eagle Medium (DMEM) containing 4500 mg/L D-glucose, L-glutamine, and 25 mM HEPES buffer, without sodium pyruvate or phenol red (Gibco, Cat. No. 21063029), supplemented with 20% heat-inactivated fetal bovine serum (FBS), 100 U/ml penicillin and 100 μg/ml streptomycin. Cells were maintained at 80% confluency at 37° C. in a humidified CO2 incubator. To initiate differentiation, myocytes were further cultured in DMEM supplemented with 10% heat-inactivated horse serum (HS), transferrin, 100 U/ml penicillin and 100 μg/ml streptomycin. Myocytes were allowed to differentiate into multi-nucleated myotubes for 5 days before experimentation. 24 hours prior to experimentation, medium was changed. At day 5 of differentiation, cells were deprived of serum and incubated in Minimal Essential Medium containing 1000 mg/L D-glucose, L-glutamine, without nucleosides (Gibco, Cat. No. 12561049) for 5 hours at 37° C. prior to incubation with insulin, TCAP-1, or saline. Cells were washed twice in glucose-free HEPES-buffered solution (HBS), containing 140 mM NaCl, 20 mM HEPES, 5 mM KCl, 2.5 mM MgSO4 and 1 mM CaCl2, followed by determinations of transport of 3H-2-deoxyglucose for 10 minutes at 0.5 μCi/ml at room temperature. Uptake of 3H-2-deoxyglucose was stopped immediately after 10 minutes with three washes of ice-cold 0.9% NaCl solution. Parallel experiments with 5 μM of cytochalasin B were done to ensure that glucose uptake was of transporter-inhibitable transport The cells were digested with 1 ml of 0.05 N NaOH. Cell lysates were used for determination of radioactivity by a beta liquid scintillation counter. Experiments were repeated three times with 3 wells per condition per replication. […] Cell lysates were used for determination of radioactivity by a beta liquid scintillation counter. […]

Substance	binding to 5 μm sections of mouse gastrocnemius muscle [1]	co-localization with latrophilin-1 immunoreactivity (latrophilin-1)	3H-2-deoxyglucose uptake value relative to baseline (mHypoE-38 neurons; 100 nM, 40 mM KCl, 60 minutes) [%]	3H-2-deoxyglucose uptake relative to baseline (mHypoE-38 neurons; 100 nM, 40 mM KCl, 90 minutes) [%]	3HDG uptake in whole cells over time (mHypoE-38 neurons; Hypo-E38 cells (FIG. 11C-E))	3H-2-deoxyglucose uptake signal (C2C12 myocytes)
FITC-TCAP-1: [K8]-TCAP-1 peptide labeled with fluorescein isothiocyanate (FITC) (QQLLGTGKVQGYDGYFVLSVEQYLELSDSANNIHFMRQSEI; ends and bridges not checked; also: FITC label, attachment site not given here)	preferentially binds to the membranes of individual skeletal mouse muscle fibers	strong co-localization	–	–	–	–
pETHSLELRVSLIGEVQQFIGYENQSDQNYGLLAYFDRVGMS-NH2 ([pGlu]THSLELRVSLIGEVQQFIGYENQSDQNYGLLAYFDRVGMS-NH2) [scTCAP-1, scrambled TCAP control with same amino acid composition but different order, pyroglutamic acid in first position]	–	–	61.523±7.545	68.020±4.812	no significant glucose uptake	lack of positive signal
